Measured values as given in ChEMBL document CHEMBL4049402, “Synthesis and cytotoxic activity of novel tetrahydrobenzodifuran-imidazolium salt derivatives” (Bioorg Med Chem Lett, 2017).

What was measured:
Assay type in all cases: functional, cell-based
MCF7 = assay: Cytotoxicity against human MCF7 cells after 48 hrs by MTT assay
SMMC-7721 = assay: Cytotoxicity against human SMMC7721 cells after 48 hrs by MTT assay
SW480 = assay: Cytotoxicity against human SW480 cells after 48 hrs by MTT assay
HL-60 = assay: Cytotoxicity against human HL60 cells after 48 hrs by MTT assay
A549 = assay: Cytotoxicity against human A549 cells after 48 hrs by MTT assay

Structure (SMILES) | IC50 (MCF7; Homo sapiens, MCF7, 48 h) [µM] | IC50 (SMMC-7721; Homo sapiens, SMMC-7721, 48 h) [µM] | IC50 (SW480; Homo sapiens, SW480, 48 h) [µM] | IC50 (HL-60; Homo sapiens, HL-60, 48 h) [µM] | IC50 (A549; Homo sapiens, A549, 48 h) [µM] | IC50 (MCF7; mcf7) [µM] | IC50 (SMMC-7721; smmc-7721) [µM] | IC50 (SW480; sw480) [µM] | IC50 (HL-60; hl-60) [µM] | IC50 (A549; a549) [µM]
Cc1cc2c(cc1C)[n+](CC(=O)c1ccccc1)cn2Cc1c2c(cc3c1OCC3)OCC2 | 7.8 | 17.4 | 11.9 | 5.68 | > 20 | – | – | – | – | –
Cc1cc2c(cc1C)[n+](CC(=O)c1ccc3ccccc3c1)cn2Cc1c2c(cc3c1OCC3)OCC2 | 8.67 | 5.64 | 14 | 1.95 | 7.77 | – | – | – | – | –
Brc1ccccc1C[n+]1ccn(Cc2c3c(cc4c2OCC4)OCC3)c1 | > 20 | > 20 | > 20 | > 20 | > 20 | – | – | – | – | –
Cc1cc2c(cc1C)[n+](Cc1ccc([N+](=O)[O-])cc1)cn2Cc1c2c(cc3c1OCC3)OCC2 | > 20 | > 20 | > 20 | > 20 | > 20 | – | – | – | – | –
c1ccc2cc(C[n+]3ccn(Cc4c5c(cc6c4OCC6)OCC5)c3)ccc2c1 | > 20 | > 20 | > 20 | > 20 | > 20 | – | – | – | – | –
Cc1ccc(C[n+]2c(C)n(Cc3c4c(cc5c3OCC5)OCC4)c3ccccc32)cc1 | > 20 | > 20 | > 20 | > 20 | > 20 | – | – | – | – | –
O=C(C[n+]1cn(Cc2c3c(cc4c2OCC4)OCC3)c2ccccc21)c1ccc2ccccc2c1 | 2.2 | 5.25 | 5.42 | 1.88 | 7.73 | – | – | – | – | –
O=C(C[n+]1ccn(Cc2c3c(cc4c2OCC4)OCC3)c1)c1ccc(Br)cc1 | > 20 | > 20 | > 20 | > 20 | > 20 | – | – | – | – | –
Brc1ccc(C[n+]2ccn(Cc3c4c(cc5c3OCC5)OCC4)c2)cc1 | > 20 | > 20 | > 20 | > 20 | > 20 | – | – | – | – | –
Brc1ccccc1C[n+]1cn(Cc2c3c(cc4c2OCC4)OCC3)c2ccccc21 | 8.3 | > 20 | 8.95 | 4.9 | > 20 | – | – | – | – | –
Cc1cc2c(cc1C)[n+](Cc1ccc(Br)cc1)cn2Cc1c2c(cc3c1OCC3)OCC2 | – | – | – | – | – | 8.05 | 6.61 | 7.76 | 0.57 | 9.01
Cc1ccc(C[n+]2cn(Cc3c4c(cc5c3OCC5)OCC4)c3cc(C)c(C)cc32)cc1 | – | – | – | – | – | 7.98 | 6.49 | 6.31 | 0.38 | 4.06
Cc1n(Cc2c3c(cc4c2OCC4)OCC3)c2ccccc2[n+]1Cc1ccc(Br)cc1 | 4.86 | 7.42 | 7.22 | 3.63 | > 20 | – | – | – | – | –
COc1ccc(C(=O)C[n+]2cn(Cc3c4c(cc5c3OCC5)OCC4)c3cc(C)c(C)cc32)cc1 | 9.87 | 6.87 | 13.7 | 2.71 | 15.4 | – | – | – | – | –
COc1ccc(C(=O)C[n+]2ccn(Cc3c4c(cc5c3OCC5)OCC4)c2)cc1 | > 20 | > 20 | > 20 | > 20 | > 20 | – | – | – | – | –
Cc1n(Cc2c3c(cc4c2OCC4)OCC3)c2ccccc2[n+]1Cc1ccc2ccccc2c1 | 3.4 | 5.5 | 4.1 | 1.76 | 9.14 | – | – | – | – | –
Cc1cc2ncn(Cc3c4c(cc5c3OCC5)OCC4)c2cc1C | > 20 | > 20 | > 20 | > 20 | > 20 | – | – | – | – | –
Cc1nc2ccccc2n1Cc1c2c(cc3c1OCC3)OCC2 | > 20 | > 20 | > 20 | > 20 | > 20 | – | – | – | – | –
Cc1n(Cc2c3c(cc4c2OCC4)OCC3)c2ccccc2[n+]1CC(=O)c1ccc(Br)cc1 | 6.43 | 11.8 | 8.29 | 4.7 | > 20 | – | – | – | – | –
COc1ccc(C(=O)C[n+]2cn(Cc3c4c(cc5c3OCC5)OCC4)c3ccccc32)cc1 | 6.6 | > 20 | 14 | 5.99 | > 20 | – | – | – | – | –
Cc1cc2c(cc1C)[n+](Cc1ccccc1Br)cn2Cc1c2c(cc3c1OCC3)OCC2 | 7.29 | 5.96 | 7.87 | 3.18 | 8.64 | – | – | – | – | –
